Laboratory results taken from patent publication US9238011B2, “Compositions, methods and kits for therapeutic treatment with wet spun microstructures” (Brown University, priority 2012, dated 2016).
Converted amounts (≈) assume the structure as drawn.

Assay: Solubility of DXM in the 6:1 (v/v) DCM to THF spin dope co-solvent
Format: physicochemical
Settings: 6:1 (v/v) DCM to THF co-solvent (spin dope), organic solvent or mixture; 6:1 (v/v) DCM to THF with PLLA; read-out: maximum solubility in co-solvent solution
Procedure: PLLA (7.5% w/v), DXM-loaded (1.0%, 2.4%, 4.8% w/w) and unloaded (0% w/w) microfibers were wet spun by phase inversion. PLLA (526.9±0.3 mg) was dissolved in a co-solvent ratio of 6:1 (v/v) DCM to THF. […] The addition of THF was necessary to increase DXM solubility within the spin dope. The polymer/drug solution was loaded into a 5 mL syringe fitted with a 22-gauge spinneret and placed in a syringe pump with a solution flow rate of 0.06 mL/min. […] A rotating mandrel placed above the spin bath was used to collect microfibers for further analysis. Each formulation in Examples herein was characterized from multiple regions of meter-long microfiber bundles spun at the same time from one spin dope solution.

solubility: ~3600 µg/mL (≈ 9.17 mM)
Structure (SMILES): C[C@@H]1C[C@H]2[C@@H]3CCC4=CC(=O)C=C[C@]4(C)[C@@]3(F)[C@@H](O)C[C@]2(C)[C@@]1(O)C(=O)CO [DXM, Dexamethasone]
